What was measured:
[1] = system: human primary lung fibroblasts (NHLF, IPF) in fibrin micro-scaffolds; experiment: Contracting scar-in-a-drop fibroplasia assay (final projected area of cell-ECM spheroids); type: cell-based
Procedure: Human primary lung fibroblasts were used in all experiments presented in this paper. Unless otherwise noted, experiments utilized normal human lung fibroblasts (NHLF B lot #0000580583; Lonza) from a person with a history of smoking. For experiments evaluating donor variability, the following cells were utilized: NHLF A (NHLF lot #0000608197; Lonza) from a person, IPF A (IPF lot #0000627840; Lonza) from a person, and IPF B (IPF lot #6F5002; Lonza) from a person. All cells were cultured in fibroblast growth media (FGM; Lonza). Cells were passaged at 80-90% confluence and were sub-cultured in 1:3 ratios by trypsinization. When at the desired confluence, cells were washed with PBS and 0.05% trypsin solution was added to the flask. Cells were incubated for 2 min, and then harvested and centrifuged ([…], 5 min) in a conical tube. The supernatant was aspirated and the cell pellet was re-suspended in FBS-free culture media. When used in fibrin degradation experiments, cells were re-suspended at 2× the final desired concentration (2500 cells/ul unless otherwise indicated). To promote collagen production and contraction in addition to fibrin degradation, serum (bovine or human) were added at 2% or higher up to about 10%. Higher cell densities (about 2500 cells/ul and higher up to about 10,000 cells/ul) also promote collagen production. All experiments were conducted with cells at or below passage 8 except for high passage experiments conducted at passage 12. In all experiments, media was changed every 48 hours and any media additives (plasminogen, TGF-β1, drugs, etc.,) were included.
ATPS printing of fibrin micro-scaffolds has previously described above. Briefly, working solutions of PEG with 0.1 U/mL of thrombin were warmed to 37° C. and pipetted into a 96-well plate. For production of droplets, fibrinogen-DEX solutions with cell suspension were maintained at 37° C. and 4 μl per assay (unless otherwise noted) was pipetted directly into the PEG-thrombin media using a semi-automated repeater pipette (Repeater E3X; Eppendorf). Following dispensing of the DEX phase, the plates were placed in an ambient air incubator at 37° C. for 30 min to allow the thrombin to enzymatically crosslink the fibrinogen into a fibrin matrix (FIG. 6A). The PEG-enriched media was removed using a 12-channel micropipette and replaced with 100 μl of fully supplemented media in each well. When applicable, this media addition was supplemented with stimuli as detailed in example 17 below. For the duration of each experiment, assay plates were imaged every 2 hours at 4× with an automated cell culture monitoring system (Incucyte S3; Sartorius). As the assay proceeded, the fibroblasts progressively remodeled the fibrin scaffold as illustrated in FIG. 6C.
After each experiment, the final projected areas of the cell-ECM spheroids were determined from brightfield images taken at the final time point using a benchtop imaging system (2× objective; EVOS M7000; ThermoFisher). These images were then segmented through a process of pixel classification, thresholding, and morphological filtering in order to isolate the cell-ECM construct area from the background.
Pixel classification implemented Ilastic, a freely available image classification tool developed by the European Molecular Biology Laboratory. Ilastik's pixel classification utility implements a random forest classifier for quick and robust segmentation. In order to train the classifier, 10 characteristic images were selected to include different stages of ECM remodeling. In this step, each individual pixel is assigned a probability for belonging to layers for the background or the cell-ECM construct. Ilastik enables interactive training of the random forest classifier via user annotations of the training images. […]

[2] = system: normal human lung fibroblasts (NHLF); experiment: mRNA quantification by qPCR in fibrin remodeling assay; type: cell-based
Procedure: RNA extraction and qPCR: Cells from 12 wells at the indicated time points were pooled together per condition and lysed with 350 μl of RLT lysis buffer. RNA was extracted using a RNeasy Mini Kit (Qiagen, #74104) and was performed according to the manufacturer's instructions. RNA sample concentration was measured using a NanoDrop OneC Spectrophotometer (Thermo Fisher Scientific). A High-Capacity RNA-to-cDNA Kit (Applied Biosystems, #4387406) was used for reverse transcription; 400 ng of RNA for each sample was mixed with 10 μl primer, 1 μl reverse transcriptase enzyme and nuclease-free water to bring the final reaction volume to 20 μl. The reaction was performed for 60 minutes at 37° C., followed by 5 minutes at 95° C. using a Veriti Thermal Cycler (Applied Biosystems). qPCR was performed using a QuantStudio 3 Real-Time PCR System (Applied Biosystems). Each reaction consisted of 1 μl cDNA, 10 μl TaqMan Fast advanced master mix (Applied Biosystems, #4444556), 1 μl primer, and 6 μl nuclease-free water. TaqMan primers (Applied Biosystems) for smooth muscle actin (ACTA2, Hs00426835_g1), plasminogen activator (PLAT, Hs00263492_m1), Plasminogen activator inhibitor-1 (SERPINE1, Hs00167155_m1), collagen type I (COL1A1, Hs00164004_m1), plasminogen activator (PLAU, Hs01547054_m1), and Ki67 (MKI67, Hs01032443_m1) were utilized. The QuantStudio 3 was programmed with a 2-minute hold at 95° C., followed by 40 cycles of 95° C. for 1 second and 60° C. for 20 seconds. Each sample was run with biological triplicates. The relative gene expression was calculated using the […], with glyceraldehyde-3-phosphate dehydrogenase as the housekeeping gene (GAPDH, Hs02786624_g1). Fold changes were normalized with respect to the time zero timepoint with no TGF-β1 stimulation and are reported as the mean with the error bars representing the minimum and maximum values.

[3] = TGF-β1 stimulation compared to the control time series

“TGF-β1: Human Recombinant TGF-β1 (Peprotech), pro-fibrotic, anti-fibrinolytic stimulus” was tested, and the “projected area of the final contracted cell-ECM spheroid” value ([1]; TGF-β1 0, 0.5, 2 ng/mL, NHLF) was “significant dose-dependent increase”, the “contraction of cell-ECM construct” value ([1]; TGF-β1 10 ng/mL (highest concentration)) was “did not contract within the duration of the experiment” and the 50% contraction time ([1]; TGF-β1 stimulation, kernel density estimates (FIG. 12A)) was “increases in both 50% contraction time and final assay area”. For the same substance, the “COL1A1 mRNA expression” value ([2]; TGF-β1 dose) was “dose-dependent increase in COL1A1”, the “ACTA2 (aSMA) mRNA expression” value ([2]; TGF-β1 dose and time course) was “increased expression for the highest concentration of TGF-β1” and the “SERPENE1 (PAI-1) mRNA expression” value ([2]; TGF-β1 dose and time course) was “significant time-dependent and dose-dependent increases in expression”. For the same substance, the “tPA (PLAT) mRNA expression” value [2, 3] was “relative downregulation”, the “uPA (PLAU) mRNA expression” value [2, 3] was “relative upregulation” and the “MKI67 mRNA expression (proliferation marker)” value ([2]; higher concentrations of TGF-β1) was “significantly upregulated”.

— patent US20220196635A1, “Fibrosis Assay” (Georgia Tech Research Corporation, priority 2020, published 2022)
